US20230416228A1 (Forkhead Biotherapeutics, Inc., priority 2020, published 2023)

Biological target: T1, human FOXO1 (constitutively active form Thr24Ala, Ser256Ala, Ser319Ala) (Homo sapiens, UniProt Q12778, S256A/S319A/T24A)
T1 construct: expressed in transfected cells; host or cells: HEK293 cells transfected with pcDNA3.1 plasmid
Experiment: FOXO1 inhibitor activity assay: cell-based transcriptional (luciferase) reporter assay in HEK293 cells
Details: HEK293 cells transfected with insulin response element firefly luciferase reporter, FOXO1 and Renilla luciferase; 10-point dose response 50 μM to 2.5 nM; 24 hours
Protocol: The inhibitory activities of compounds on FOXO1 were determined by a cell-based transcriptional reporter assay. HEK293 cells were plated onto either 384-well poly-D-lysine coated plates (at 7500 cells per well) or 96-well plates (at 20000 cells per well) in low glucose Eagle's Minimum Essential Medium (EMEM) containing 1% fetal bovine serum, and incubated overnight at 37° C. and 5% CO2. […] Duplicate wells were included for each treatment condition. Cells were incubated for 24 hours at 37° C. and 5% CO2. Luciferase activities in each well were measured using Dual-Glog Luciferase Assay System (Promega) according to manufacturer's protocol and an Envision plate reader suitable for luminescence detection. Firefly luciferase activity was divided by Renilla luciferase activity to calculate a ratio for each well. The ratio in wells containing cells transfected with all 3 plasmids listed above and receiving only DMSO without compound addition was set to 100%. The ratio in wells containing cells transfected with plasmid (1), plasmid (3), and pcDNA3.1 containing the open reading frame of red fluorescent protein (instead of human FOXO1) and treated with DMSO was set to 0%. The ratio in each well receiving compound treatment was normalized and expressed as a percentage. Data were fit by 4-parameter logistic regression to determine IC50 and maximal inhibition values. Each compound was tested in a minimum of 2 independent experiments.

T1 sequence (Q12778 whole entry T24A/S256A/S319A): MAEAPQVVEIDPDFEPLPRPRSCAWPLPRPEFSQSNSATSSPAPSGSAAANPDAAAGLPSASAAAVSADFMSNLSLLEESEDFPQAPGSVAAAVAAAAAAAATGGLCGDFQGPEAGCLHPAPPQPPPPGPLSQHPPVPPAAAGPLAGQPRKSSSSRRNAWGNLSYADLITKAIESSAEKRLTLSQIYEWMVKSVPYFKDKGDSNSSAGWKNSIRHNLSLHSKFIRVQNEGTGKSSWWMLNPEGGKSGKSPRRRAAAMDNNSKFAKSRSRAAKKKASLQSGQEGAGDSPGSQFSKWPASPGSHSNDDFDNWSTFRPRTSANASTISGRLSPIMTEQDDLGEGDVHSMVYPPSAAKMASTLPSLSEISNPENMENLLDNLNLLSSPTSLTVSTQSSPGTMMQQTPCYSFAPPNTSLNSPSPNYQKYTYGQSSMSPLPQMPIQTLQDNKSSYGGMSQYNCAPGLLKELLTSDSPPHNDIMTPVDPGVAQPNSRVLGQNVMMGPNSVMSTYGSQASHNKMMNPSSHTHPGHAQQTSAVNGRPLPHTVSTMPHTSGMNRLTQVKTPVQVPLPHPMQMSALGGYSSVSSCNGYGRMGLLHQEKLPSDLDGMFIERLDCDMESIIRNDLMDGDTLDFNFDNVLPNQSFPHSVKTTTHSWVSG

Row | IC50 | SMILES
1 | < 100 nM | CC1CN(c2ccc(C(=O)Nc3cc(-c4nc5ccccc5[nH]4)n(C)n3)cn2)CC(CO)O1 (single isomer, unassigned) [Compound A-292, N-[5-(1H-benzimidazol-2-yl)-1-methyl-pyrazol-3-yl]-6-[2-(hydroxymethyl)-6-methyl-morpholin-4-yl]pyridine-3-carboxamide]
2 | 100 to 300 nM | CC1CN(c2ccc(C(=O)Nc3cc(-c4nc5ccccc5[nH]4)n(C)n3)cn2)CC(CO)O1 (single isomer, unassigned) [Compound A-293, N-[5-(1H-benzimidazol-2-yl)-1-methyl-pyrazol-3-yl]-6-[2-(hydroxymethyl)-6-methyl-morpholin-4-yl]pyridine-3-carboxamide]
3 | < 100 nM | CC1CN(c2ccc(C(=O)Nc3cc(-c4nc5ccccc5[nH]4)n(C)n3)cn2)CC(CO)O1 (single isomer, unassigned) [Compound A-294, N-[5-(1H-benzimidazol-2-yl)-1-methyl-pyrazol-3-yl]-6-[2-(hydroxymethyl)-6-methyl-morpholin-4-yl]pyridine-3-carboxamide]
4 | < 100 nM | CC1CN(c2ccc(C(=O)Nc3cc(-c4nc5ccccc5[nH]4)n(C)n3)cn2)CC(CO)O1 (single isomer, unassigned) [Compound A-295, N-[5-(1H-benzimidazol-2-yl)-1-methyl-pyrazol-3-yl]-6-[2-(hydroxymethyl)-6-methyl-morpholin-4-yl]pyridine-3-carboxamide]
5 | 300 to 1000 nM | Cn1nc(NC(=O)c2ccc(N3CCC(O)C3)nc2)cc1-c1nc2ccccc2[nH]1 (stereo in doubt) [Compound A-227, N-[5-(1H-benzimidazol-2-yl)-1-methyl-pyrazol-3-yl]-6-[(3R)-3-hydroxy-pyrrolidin-1-yl]pyridine-3-carboxamide]
6 | < 100 nM | CC(=O)N1CCN(c2ccc(C(=O)Nc3cc(-c4nc5ccccc5[nH]4)n(C)n3)cn2)CC1 [A-231, 6-(4-acetylpiperazin-1-yl)-N-[5-(1H-benzimidazol-2-yl)-1-methyl-pyrazol-3-yl]pyridine-3-carboxamide]
7 | < 100 nM | CC(O)CN1CCN(c2ccc(C(=O)Nc3cc(-c4nc5ccccc5[nH]4)n(C)n3)cc2)CC1 (stereo not shown) [A-257, N-[5-(1H-benzimidazol-2-yl)-1-methyl-pyrazol-3-yl]-4-[4-(2-hydroxypropyl)piperazin-1-yl]benzamide]
8 | > 1000 nM | COc1ccc(C(=O)Nc2cc(C(=O)NC3COC3)[nH]n2)cc1Cl [Compound A-16, 3-[(3-chloro-4-methoxy-benzoyl)amino]-N-(oxetan-3-yl)-1H-pyrazole-5-carboxamide]
9 | < 100 nM | CN1CCN(c2ccc(C(=O)Nc3cc(-c4nc5ccccc5[nH]4)[nH]n3)cn2)CC1 [Compound A-21, N-[5-(1H-benzimidazol-2-yl)-1H-pyrazol-3-yl]-6-(4-methyl-piperazin-1-yl)pyridine-3-carboxamide]
10 | < 100 nM | COCCOc1ccc(C(=O)Nc2cc(-c3nc4ccccc4[nH]3)[nH]n2)cc1Cl [Compound A-29, N-[5-(1H-benzimidazol-2-yl)-1H-pyrazol-3-yl]-3-chloro-4-(2-methoxyethoxy)benzamide]
11 | > 1000 nM | COc1ccc(C(=O)Nc2cc(-c3nc4ccccc4[nH]3)no2)cc1Cl [Compound A-30, N-[3-(1H-benzimidazol-2-yl)isoxazol-5-yl]-3-chloro-4-methoxy-benzamide]
12 | 100 to 300 nM | O=C(Nc1cc(-c2nc3ccccc3[nH]2)[nH]n1)c1ccc(OCCN2CCOCC2)c(Cl)c1 [Compound A-33, N-[5-(1H-benzimidazol-2-yl)-1H-pyrazol-3-yl]-3-chloro-4-(2-morpholinoethoxy)benzamide]
13 | < 100 nM | O=C(Nc1cc(-c2nc3ccccc3[nH]2)[nH]n1)c1ccc(N2CCC(O)CC2)cc1 [Compound A-36, N-[5-(1H-benzimidazol-2-yl)-1H-pyrazol-3-yl]-4-(4-hydroxy-1-piperidyl)-benzamide]
14 | < 100 nM | COCCNc1ccc(C(=O)Nc2cc(-c3nc4ccccc4[nH]3)[nH]n2)cc1Cl [Compound A-39, N-[5-(1H-benzimidazol-2-yl)-1H-pyrazol-3-yl]-3-chloro-4-(2-methoxyethylamino)benzamide]
15 | < 100 nM | O=C(Nc1cc(-c2nc3ccccc3[nH]2)[nH]n1)c1ccc(N2CC[C@@H](O)C2)cc1 [Compound A-40, N-[5-(1H-benzimidazol-2-yl)-1H-pyrazol-3-yl]-4-[(3R)-3-hydroxypyrrolidin-1-yl]benzamide]
16 | < 100 nM | O=C(Nc1cc(-c2nc3ccccc3[nH]2)[nH]n1)c1ccc(N2CCOCC2)nc1 [Compound A-41, N-[5-(1H-benzimidazol-2-yl)-1H-pyrazol-3-yl]-6-morpholino-pyridine-3-carboxamide]

Row | IC50 | SMILES
17 | 100 to 300 nM | O=C(Nc1cc(-c2nc3ccccc3[nH]2)[nH]n1)c1ccc(N2CCC(O)CC2)nc1 [Compound A-42, N-[5-(1H-benzimidazol-2-yl)-1H-pyrazol-3-yl]-6-(4-hydroxy-1-piperidyl)pyridine-3-carboxamide]
18 | < 100 nM | O=C(Nc1cc(-c2nc3ccccc3[nH]2)[nH]n1)c1ccc(N2CC[C@H](O)C2)cc1 [Compound A-43, N-[5-(1H-benzimidazol-2-yl)-1H-pyrazol-3-yl]-4-[(3S)-3-hydroxy-pyrrolidin-1-yl]benzamide]
19 | < 100 nM | O=C(Nc1cc(-c2nc3ccccc3[nH]2)[nH]n1)c1ccc(N2CCC3(CCCO3)CC2)nc1 [Compound A-44, N-[5-(1H-benzimidazol-2-yl)-1H-pyrazol-3-yl]-6-(1-oxa-8-azaspiro[4.5]decan-8-yl)pyridine-3-carboxamide]
20 | > 1000 nM | O=C(Nc1cc(-c2nc3ccccc3[nH]2)[nH]n1)c1ccc(N2CC3(COC3)C2)nc1 [Compound A-45, N-[5-(1H-benzimidazol-2-yl)-1H-pyrazol-3-yl]-6-(2-oxa-6-azaspiro[3.3]heptan-6-yl)pyridine-3-carboxamide]
21 | < 100 nM | CN(C)C1CCN(c2ccc(C(=O)Nc3cc(-c4nc5ccccc5[nH]4)[nH]n3)cn2)CC1 [Compound A-46, N-[5-(1H-benzimidazol-2-yl)-1H-pyrazol-3-yl]-6-[4-(dimethylamino)-1-piperidyl]pyridine-3-carboxamide]
22 | < 100 nM | CC(C)(O)C1CCN(c2ccc(C(=O)Nc3cc(-c4nc5ccccc5[nH]4)[nH]n3)cn2)CC1 [Compound A-47, N-[5-(1H-benzimidazol-2-yl)-1H-pyrazol-3-yl]-6-[4-(1-hydroxy-1-methyl-ethyl)-1-piperidyl]pyridine-3-carboxamide]
23 | > 1000 nM | O=C(Nc1cc(-c2nc3ccccc3[nH]2)[nH]n1)c1ccc(N2CCC[C@H]2C(=O)O)nc1 [Compound A-48, (2S)-1-[5-[[5-(1H-benzimidazol-2-yl)-1H-pyrazol-3-yl]carbamoyl]-2-pyridyl]pyrrolidine-2-carboxylic acid]
24 | 300 to 1000 nM | O=C(Nc1cc(-c2nc3ccccc3[nH]2)[nH]n1)c1ccc(N2CCS(=O)(=O)CC2)nc1 [Compound A-49, N-[5-(1H-benzimidazol-2-yl)-1H-pyrazol-3-yl]-6-(1,1-dioxo-1,4-thiazinan-4-yl)pyridine-3-carboxamide]
25 | < 100 nM | O=C(Nc1cc(-c2nc3ccccc3[nH]2)[nH]n1)c1ccc(OCCO)c(Cl)c1 [Compound A-50, N-[5-(1H-benzimidazol-2-yl)-1H-pyrazol-3-yl]-3-chloro-4-(2-hydroxy-ethoxy)benzamide]
26 | > 1000 nM | O=C(Nc1cc(-c2nc3ccccc3[nH]2)[nH]n1)c1ccc(N2CCC(C(=O)O)CC2)nc1 [Compound A-51, ammonium 1-[5-[[5-(1H-benzimidazol-2-yl)-1H-pyrazol-3-yl]carbamoyl]-2-pyridyl]piperidine-4-carboxylate]
27 | 100 to 300 nM | O=C(Nc1cc(-c2nc3ccccc3[nH]2)[nH]n1)c1ccc(N2CCC[C@H]2CO)nc1 [Compound A-52, N-[5-(1H-benzimidazol-2-yl)-1H-pyrazol-3-yl]-6-[(2S)-2-(hydroxymethyl)-pyrrolidin-1-yl]pyridine-3-carboxamide]
28 | < 100 nM | COCCCOc1ccc(C(=O)Nc2cc(-c3nc4ccccc4[nH]3)[nH]n2)cc1Cl [Compound A-53, N-[5-(1H-benzimidazol-2-yl)-1H-pyrazol-3-yl]-3-chloro-4-(3-methoxy-propoxy)benzamide]
29 | 300 to 1000 nM | O=C(Nc1cc(-c2nc3ccccc3[nH]2)[nH]n1)c1ccc(N2CC[C@H](O)C2)nc1 [Compound A-54, N-[5-(1H-benzimidazol-2-yl)-1H-pyrazol-3-yl]-6-[(3S)-3-hydroxy-pyrrolidin-1-yl]pyridine-3-carboxamide]
30 | 300 to 1000 nM | O=C(Nc1cc(-c2nc3ccccc3[nH]2)[nH]n1)c1ccc(N2CC[C@@H](O)C2)nc1 [Compound A-55, N-[5-(1H-benzimidazol-2-yl)-1H-pyrazol-3-yl]-6-[(3R)-3-hydroxypyrrolidin-1-yl]pyridine-3-carboxamide]
31 | > 1000 nM | CCOC(=O)[C@@H]1CCCN1c1ccc(C(=O)Nc2cc(-c3nc4ccccc4[nH]3)[nH]n2)cn1 [Compound A-56, ethyl (2S)-1-[5-[[5-(1H-benzimidazol-2-yl)-1H-pyrazol-3-yl]carbamoyl]-2-pyridyl]pyrrolidine-2-carboxylate]
